Our source for the inhibition and inhibition in vivo values is patent publication US5463073A, “Thienoimidazole derivatives, their production and use” (Takeda Chemical Industries, Ltd., priority 1990, dated 1995).

The structures appear in SMILES notation.

In experiment [1] the target is T1, angiotensin II (A-II) receptor (Bos taurus, UniProt P25104).
T1 construct: membrane fraction was prepared from bovine adrenal cortex; from tissue; host or cells: bovine adrenal cortex membrane fraction
T1 sequence (P25104 1-359): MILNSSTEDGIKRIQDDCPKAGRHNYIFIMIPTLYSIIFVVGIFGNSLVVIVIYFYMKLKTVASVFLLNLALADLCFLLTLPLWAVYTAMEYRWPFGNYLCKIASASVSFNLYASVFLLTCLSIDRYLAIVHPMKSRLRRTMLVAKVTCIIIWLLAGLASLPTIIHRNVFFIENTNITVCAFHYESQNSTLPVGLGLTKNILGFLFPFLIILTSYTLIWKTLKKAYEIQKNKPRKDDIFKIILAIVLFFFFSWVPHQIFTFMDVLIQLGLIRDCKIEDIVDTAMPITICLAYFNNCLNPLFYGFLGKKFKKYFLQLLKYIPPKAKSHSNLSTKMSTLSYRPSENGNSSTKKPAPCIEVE
Briefly: Inhibition of binding of angiotensin II to angiotensin II receptor (radioreceptor assay, 125I-A-II, bovine adrenal cortex membrane fraction). The following applies: room temperature, 1 h; for inhibition at 1 µM: 10^-6 M; for inhibition at 0.1 µM: 10^-7 M. As for the experimental part: Inhibitory Effect of Binding of Angiotensin-II to Angiotensin Receptor
An experiment of inhibition on the binding of angiotensin II (A-II) receptor was conducted by modifying the method of Douglas et al. [Endocrinology, 102, 685-696 (1978)]. An A-II receptor membrane fraction was prepared from bovine adrenal cortex.
The compound of the present invention (10^-6 M or 10^-7 M) and^125 I-angiotensin II (^125 I-A-II) (1.85 kBq/50 μl) were added to the receptor membrane fraction, and the mixture was incubated at room temperature for one hour. The receptor-bound and free ^125 I-A-II were separated through a filter (Whatman GF/B filter), and the radioactivity of ^125 I-A-II bound to the receptor was measured.

Experiment [2] concerns A-II-induced pressor action. Kind of experiment: Inhibitory effect on pressor action of angiotensin II in rats (p.o.). It counts as in vivo, Jcl: SD rats. The following applies: Rattus norvegicus, po; 1 mg/kg p.o.; male SD rats; A-II 100 ng/kg i.v.; read-out: Pressor Response (percent inhibition of A-II-induced pressor action). The text has this: Inhibitory Effect of the Compound of the Present Invention on Pressor Action of Angiotensin
Jcl: SD rats (9 week old, male) were employed. On the day previous to that of the experiment, these animals were applied with cannulation into the femoral artery and vein under anesthesia with pentobarbital Na. The animals were fasted but allowed to access freely to drinking water until the experiment was started. Just on the day of conducting the experiment, the artery cannula was connected with a blood-pressure transducer, and the average blood pressure was recorded by means of polygraph. Before administration of the drug, the pressor action due to intravenous administration of angiotensin II (A-II) (100 ng/kg) as the control was measured. The drugs were orally administered, then, at each point of the measurement, A-II was administered intravenously, and the pressor action was similarly measured. By comparing the pressor action before and after administration of the drug, the percent inhibition by the drug on A-II-induced pressor action was evaluated.

In general, inhibition refers to how much of the control response was suppressed. Higher therefore signals a strong effect. In experiment [1], `CSc1nc2c(C)sc(C(=O)O)c2n1Cc1ccc(-c2ccccc2-c2nn[nH]n2)cc1` [Working Example 15] gave an inhibition at 1 µM of 50% and an inhibition at 0.1 µM of 14%. Besides, the inhibition in vivo at 1 mg/kg in experiment [2] was at least 70%.

In experiment [1], `Cc1sc(C(=O)O)c2c1nc(SC(C)C)n2Cc1ccc(-c2ccccc2-c2nnn[nH]2)cc1` [Working Example 17, 2-Isopropylthio-4-methyl-1-[[2'-(1H-tetrazol-5-yl]-biphenyl-4-yl]methyl]thieno[3,4-d]imidazole-6-carboxylic acid] had an inhibition at 1 µM of 64% and an inhibition at 0.1 µM of 26%. Besides, the inhibition in vivo at 1 mg/kg in experiment [2] was at least 70%.

In experiment [1], `CCCCSc1nc2c(C)sc(C(=O)O)c2n1Cc1ccc(-c2ccccc2-c2nn[nH]n2)cc1` [Working Example 18, 2-Butylthio-4-methyl-1-[[2',(1H-tetrazol-5-yl)biphenyl-4-yl]methyl]thieno[3,4-d]imidazole-6-carboxylic acid] returned an inhibition at 1 µM of 66% and an inhibition at 0.1 µM of 33%. Further, in experiment [2], the inhibition in vivo at 1 mg/kg is 30 to 50%.

In experiment [1], `CCSc1nc2csc(C(=O)O)c2n1Cc1ccc(-c2ccccc2-c2nnn[nH]2)cc1` [Working Example 22, 2-Ethylthio-1-[[2'-(1H-tetrazol-5-yl)biphenyl-4-yl]methyl]thieno[3,4-d]imidazole-6-carboxylic acid] yielded an inhibition at 1 µM of 84% and an inhibition at 0.1 µM of 45%. The inhibition in vivo at 1 mg/kg in experiment [2] was 50 to 70%.

On to `CCSc1nc2c(C)sc(C(=O)OC)c2n1Cc1ccc(-c2ccccc2-c2nn[nH]n2)cc1` [compound 1], for which, in experiment [1], the inhibition at 1 µM was 91% and the inhibition at 0.1 µM came to 68%. Further, in experiment [2], the inhibition in vivo at 1 mg/kg is 30 to 50%.

In the case of `CCSc1nc2c(C)sc(C(=O)O)c2n1Cc1ccc(-c2ccccc2-c2nn[nH]n2)cc1` [compound 2], in experiment [1], the inhibition at 1 µM worked out at 64% and the inhibition at 0.1 µM came to 18%. The inhibition in vivo at 1 mg/kg in experiment [2] was at least 70%.

`CCSc1nc2c(C)sc(C(=O)OCOC(=O)C(C)(C)C)c2n1Cc1ccc(-c2ccccc2-c2nn[nH]n2)cc1` [compound 5]: in experiment [1], the inhibition at 1 µM stood at 89% and testing at 0.1 µM gave an inhibition of 59%. Besides, the inhibition in vivo at 1 mg/kg in experiment [2] is at least 70%.

In experiment [1], `CCSc1nc2c(C)sc(C(=O)OC(C)OC(=O)OC3CCCCC3)c2n1Cc1ccc(-c2ccccc2-c2nn[nH]n2)cc1` (stereo not drawn) [compound 6] returned an inhibition at 1 µM of 84% and an inhibition at 0.1 µM of 46%. Moreover, the inhibition in vivo at 1 mg/kg in experiment [2] was at least 70%.

With `COC(=O)c1sc(C)c2nc(SC)n(Cc3ccc(-c4ccccc4-c4nn[nH]n4)cc3)c12` [compound 7], in experiment [1], the inhibition at 1 µM stood at 77% and the inhibition at 0.1 µM is 55%. Moreover, the inhibition in vivo at 1 mg/kg in experiment [2] fell in the range of 30 to 50%.

For the compound `COc1nc2c(C)sc(C(=O)O)c2n1Cc1ccc(-c2ccccc2-c2nn[nH]n2)cc1` [compound 28], in experiment [1], 1 µM produced 65% inhibition and the inhibition at 0.1 µM worked out at 19%. For the same compound, the inhibition in vivo at 1 mg/kg in experiment [2] is at least 70%.

Regarding `CCOc1nc2c(C)sc(C(=O)O)c2n1Cc1ccc(-c2ccccc2-c2nn[nH]n2)cc1` [compound 29], in experiment [1], the inhibition at 1 µM worked out at 67% and the inhibition at 0.1 µM was found to be 39%.

Turning to `CCCOc1nc2c(C)sc(C(=O)O)c2n1Cc1ccc(-c2ccccc2-c2nn[nH]n2)cc1` [compound 30], in experiment [1], the inhibition at 1 µM is 72% and the inhibition at 0.1 µM amounted to 33%.

As to `CCNc1nc2c(C)sc(C(=O)O)c2n1Cc1ccc(-c2ccccc2-c2nn[nH]n2)cc1` [compound 31], in experiment [1], at 1 µM the inhibition was 75% and the inhibition at 0.1 µM was 26%.

On to `COc1nc2c(C)sc(C(=O)OCOC(C)=O)c2n1Cc1ccc(-c2ccccc2-c2nn[nH]n2)cc1` [compound 36], for which, in experiment [1], at 1 µM the inhibition was 92% and the inhibition at 0.1 µM came to 73%. In addition, in experiment [2], the inhibition in vivo at 1 mg/kg was at least 70%.
